Experiment [1] is described as follows: NIH3T3 cell viability loss – ATP luminescence, mouse fibroblasts, counter-screen, dose response (AID 2010).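 Note: cells exposed to compound for about 90 hours before reading.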 It is filed as functional, cell-based. In general terms: The purpose of a counterscreen is to sort out artefacts and off-target activity.
Experiment [2] can be described thus: Trypanosoma cruzi growth suppression in host cells – NIH3T3 host cells, beta-gal luminescence, confirmation (AID 2044).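 Note: intracellular parasites grown in NIH/3T3 mouse fibroblasts as host cells; luminescent beta-galactosidase reporter signal from transgenic T. cruzi replicating inside host cells; inhibitors lower the luminescence signal.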 Type of experiment: functional, cell-based.
Experiment [3] in a line: M. tuberculosis H37Rv growth inhibitors, H37Rv strain (AID 1626). It is filed as functional.
In another experiment the target is Prothrombin (Homo sapiens, UniProt P00734). Description: Thrombin 1536 HTS Dose Response Confirmation. [Related pubchem assays: 1046 (Thrombin 1536 HTS; hits were confirmed in this assay)]. It is filed as functional.
The target of experiment [4] is T1, High affinity choline transporter 1 (Homo sapiens, UniProt Q9GZV3).
T1 sequence (Q9GZV3 whole entry): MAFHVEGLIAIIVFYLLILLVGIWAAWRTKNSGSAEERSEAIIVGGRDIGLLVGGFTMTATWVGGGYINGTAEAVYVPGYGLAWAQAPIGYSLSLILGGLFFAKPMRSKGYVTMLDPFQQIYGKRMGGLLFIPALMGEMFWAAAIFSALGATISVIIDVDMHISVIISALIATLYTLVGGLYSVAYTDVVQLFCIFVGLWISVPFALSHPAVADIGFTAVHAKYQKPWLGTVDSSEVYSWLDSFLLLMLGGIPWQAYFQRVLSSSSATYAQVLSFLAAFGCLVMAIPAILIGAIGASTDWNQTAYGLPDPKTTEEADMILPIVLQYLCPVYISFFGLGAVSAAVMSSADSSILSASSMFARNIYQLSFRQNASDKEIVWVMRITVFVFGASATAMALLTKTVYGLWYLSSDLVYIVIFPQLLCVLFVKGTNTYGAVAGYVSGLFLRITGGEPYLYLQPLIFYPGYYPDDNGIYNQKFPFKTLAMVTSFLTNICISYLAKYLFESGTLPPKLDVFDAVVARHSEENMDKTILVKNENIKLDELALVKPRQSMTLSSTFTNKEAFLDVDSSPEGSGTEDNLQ
Briefly: human choline transporter blockers, potency – cell-based, 5-point CRC, membrane potential dye, dose response (AID 504840). Type of experiment: functional.

Another experiment deals with Albumin (Bos taurus, UniProt P02769). Briefly: Counterscreen for inhibitors of T-cell receptor (TCR)-CD3 interaction: Fluorescence-based biochemical high throughput dose response assay to identify inhibitors of T-cell receptor (TCR)-CD3 interaction using a TAMRA-labeled BSA probe. Type of experiment: functional.
Sequence of Albumin (P02769 whole entry): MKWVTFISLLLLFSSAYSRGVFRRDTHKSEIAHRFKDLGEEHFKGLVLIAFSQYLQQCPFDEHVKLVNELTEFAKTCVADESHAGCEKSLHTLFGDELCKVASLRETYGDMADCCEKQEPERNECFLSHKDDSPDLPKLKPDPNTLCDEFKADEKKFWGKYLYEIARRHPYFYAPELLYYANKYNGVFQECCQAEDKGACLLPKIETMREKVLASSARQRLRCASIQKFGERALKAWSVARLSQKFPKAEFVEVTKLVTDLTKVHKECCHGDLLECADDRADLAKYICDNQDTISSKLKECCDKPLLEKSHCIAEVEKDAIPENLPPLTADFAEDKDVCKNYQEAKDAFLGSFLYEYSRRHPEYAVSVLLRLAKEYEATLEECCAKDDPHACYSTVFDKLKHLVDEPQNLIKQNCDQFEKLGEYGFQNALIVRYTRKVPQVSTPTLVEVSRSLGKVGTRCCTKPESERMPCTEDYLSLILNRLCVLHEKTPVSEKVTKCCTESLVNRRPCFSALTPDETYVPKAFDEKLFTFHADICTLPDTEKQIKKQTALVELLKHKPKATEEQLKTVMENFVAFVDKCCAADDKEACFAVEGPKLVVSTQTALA
For experiment [5], the target named is T2, Fatty acid synthase (Homo sapiens, UniProt P49327). Briefly: inhibition of human FAS-TE enzyme activity – biochemical, endpoint fluorescence intensity, uHTS hits, dose response (AID 624327).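 Note: fluorescence from hydrolysis of an O-methyl fluorescein acyl ester substrate by the enzyme.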 It is filed as functional.
T2 sequence (P49327 whole entry): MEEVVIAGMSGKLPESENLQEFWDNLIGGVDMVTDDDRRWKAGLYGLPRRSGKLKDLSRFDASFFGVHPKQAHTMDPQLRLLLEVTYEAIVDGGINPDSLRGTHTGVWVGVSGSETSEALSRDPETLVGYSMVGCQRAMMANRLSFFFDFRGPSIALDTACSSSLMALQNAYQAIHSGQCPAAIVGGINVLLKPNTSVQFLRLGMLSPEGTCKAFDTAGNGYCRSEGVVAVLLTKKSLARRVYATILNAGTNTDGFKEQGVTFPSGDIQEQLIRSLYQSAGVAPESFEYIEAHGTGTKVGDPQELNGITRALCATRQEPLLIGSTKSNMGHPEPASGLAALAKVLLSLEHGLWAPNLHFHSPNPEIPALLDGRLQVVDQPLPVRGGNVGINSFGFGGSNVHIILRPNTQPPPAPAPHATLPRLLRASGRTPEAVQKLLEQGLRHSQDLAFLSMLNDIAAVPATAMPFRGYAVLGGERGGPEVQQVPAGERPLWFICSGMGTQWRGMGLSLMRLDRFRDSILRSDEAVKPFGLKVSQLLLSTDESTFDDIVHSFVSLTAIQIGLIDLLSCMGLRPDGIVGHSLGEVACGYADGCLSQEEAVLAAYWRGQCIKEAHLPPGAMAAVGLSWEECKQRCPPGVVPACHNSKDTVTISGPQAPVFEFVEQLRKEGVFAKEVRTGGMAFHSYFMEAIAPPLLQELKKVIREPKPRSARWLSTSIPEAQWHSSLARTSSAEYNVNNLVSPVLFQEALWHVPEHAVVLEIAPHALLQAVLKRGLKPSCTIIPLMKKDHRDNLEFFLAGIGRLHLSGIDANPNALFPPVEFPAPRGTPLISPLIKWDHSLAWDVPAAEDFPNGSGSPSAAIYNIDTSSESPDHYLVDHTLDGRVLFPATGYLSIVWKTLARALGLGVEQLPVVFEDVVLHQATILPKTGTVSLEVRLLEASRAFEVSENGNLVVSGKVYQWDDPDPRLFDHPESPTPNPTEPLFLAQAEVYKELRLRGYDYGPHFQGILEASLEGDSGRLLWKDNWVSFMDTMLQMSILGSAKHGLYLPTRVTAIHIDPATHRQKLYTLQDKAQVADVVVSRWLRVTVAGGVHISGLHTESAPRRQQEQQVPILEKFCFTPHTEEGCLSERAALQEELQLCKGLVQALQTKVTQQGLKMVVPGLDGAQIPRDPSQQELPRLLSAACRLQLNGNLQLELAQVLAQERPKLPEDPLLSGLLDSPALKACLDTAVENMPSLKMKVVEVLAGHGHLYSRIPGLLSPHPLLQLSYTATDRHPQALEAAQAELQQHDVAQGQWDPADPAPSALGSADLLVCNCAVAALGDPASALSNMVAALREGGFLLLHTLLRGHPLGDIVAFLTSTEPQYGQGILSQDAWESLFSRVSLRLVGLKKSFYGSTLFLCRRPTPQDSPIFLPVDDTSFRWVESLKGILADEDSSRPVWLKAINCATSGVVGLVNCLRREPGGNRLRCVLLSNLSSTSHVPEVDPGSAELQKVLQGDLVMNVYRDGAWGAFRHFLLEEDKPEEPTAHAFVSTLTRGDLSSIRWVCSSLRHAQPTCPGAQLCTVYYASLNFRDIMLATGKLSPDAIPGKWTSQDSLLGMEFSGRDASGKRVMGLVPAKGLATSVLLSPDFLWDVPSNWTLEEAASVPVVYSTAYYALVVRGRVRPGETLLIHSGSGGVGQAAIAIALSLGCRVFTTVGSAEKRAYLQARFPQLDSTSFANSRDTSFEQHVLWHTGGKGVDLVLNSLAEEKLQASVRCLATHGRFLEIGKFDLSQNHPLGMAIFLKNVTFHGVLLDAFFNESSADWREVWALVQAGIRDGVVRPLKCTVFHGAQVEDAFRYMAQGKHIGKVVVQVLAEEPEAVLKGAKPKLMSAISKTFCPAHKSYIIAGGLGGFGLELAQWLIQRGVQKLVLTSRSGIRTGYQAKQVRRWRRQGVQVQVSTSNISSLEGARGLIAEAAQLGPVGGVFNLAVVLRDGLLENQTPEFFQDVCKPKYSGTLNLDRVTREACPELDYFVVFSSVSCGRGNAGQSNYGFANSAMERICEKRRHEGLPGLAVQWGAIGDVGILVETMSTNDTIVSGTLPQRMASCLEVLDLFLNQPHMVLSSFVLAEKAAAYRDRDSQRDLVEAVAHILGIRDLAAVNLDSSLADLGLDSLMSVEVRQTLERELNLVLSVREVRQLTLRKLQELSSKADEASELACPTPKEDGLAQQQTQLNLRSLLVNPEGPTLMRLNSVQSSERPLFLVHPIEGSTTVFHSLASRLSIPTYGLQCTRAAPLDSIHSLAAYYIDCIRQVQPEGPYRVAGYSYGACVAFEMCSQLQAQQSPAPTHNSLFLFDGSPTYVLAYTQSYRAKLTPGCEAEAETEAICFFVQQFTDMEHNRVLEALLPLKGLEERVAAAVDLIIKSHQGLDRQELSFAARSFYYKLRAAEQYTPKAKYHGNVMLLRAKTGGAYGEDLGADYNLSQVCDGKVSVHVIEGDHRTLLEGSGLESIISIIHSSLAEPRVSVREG
For experiment [6], the target named is T2, Fatty acid synthase. Description: inhibition of human FAS-TE enzyme activity – biochemical, kinetic fluorescence intensity, dose response (AID 624326).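 Note: rate of fluorescence rise from hydrolysis of a fluorogenic O-methyl fluorescein ester substrate.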 Type of experiment: functional.
In a further experiment the target is T3, Caspase-6 (Homo sapiens, UniProt P55212).
T3 sequence (P55212 whole entry): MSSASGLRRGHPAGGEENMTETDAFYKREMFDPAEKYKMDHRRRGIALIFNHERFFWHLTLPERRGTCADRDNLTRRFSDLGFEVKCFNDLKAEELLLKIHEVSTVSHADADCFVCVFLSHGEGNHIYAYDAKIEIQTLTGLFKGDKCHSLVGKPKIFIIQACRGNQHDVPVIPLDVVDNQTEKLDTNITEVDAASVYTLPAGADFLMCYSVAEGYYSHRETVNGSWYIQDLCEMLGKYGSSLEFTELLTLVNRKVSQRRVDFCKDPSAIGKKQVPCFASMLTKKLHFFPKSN
Briefly: inhibition of CASP6 peptide cleavage – biochemical, VEID-R110 fluorescence, cherry-pick, dose response (AID 720632).

Experiment [7] has as its target T4, Calpain-2 catalytic subunit (Sus scrofa, UniProt P43367).
T4 sequence (P43367 whole entry): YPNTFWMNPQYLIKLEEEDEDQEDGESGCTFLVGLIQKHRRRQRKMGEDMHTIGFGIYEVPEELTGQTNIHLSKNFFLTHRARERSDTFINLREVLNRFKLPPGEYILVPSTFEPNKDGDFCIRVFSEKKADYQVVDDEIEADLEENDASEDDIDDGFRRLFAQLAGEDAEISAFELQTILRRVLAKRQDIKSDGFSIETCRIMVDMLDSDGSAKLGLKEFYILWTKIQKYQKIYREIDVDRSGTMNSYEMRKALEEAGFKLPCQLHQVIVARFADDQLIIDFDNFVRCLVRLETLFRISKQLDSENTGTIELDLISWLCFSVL
Briefly: m-calpain protease blockers, concentration series – biochemical, fluorogenic peptide substrate, dose response (AID 1420). It is filed as functional.

The target in a further experiment is Genome polyprotein (dengue virus type 2, UniProt P29990). Description: flavivirus cap methylation enzyme inhibition – biochemical, confirmation dose response, primary screen (AID 588689). It is filed as functional.
Sequence of Genome polyprotein (P29990 2492-3391 limits assumed): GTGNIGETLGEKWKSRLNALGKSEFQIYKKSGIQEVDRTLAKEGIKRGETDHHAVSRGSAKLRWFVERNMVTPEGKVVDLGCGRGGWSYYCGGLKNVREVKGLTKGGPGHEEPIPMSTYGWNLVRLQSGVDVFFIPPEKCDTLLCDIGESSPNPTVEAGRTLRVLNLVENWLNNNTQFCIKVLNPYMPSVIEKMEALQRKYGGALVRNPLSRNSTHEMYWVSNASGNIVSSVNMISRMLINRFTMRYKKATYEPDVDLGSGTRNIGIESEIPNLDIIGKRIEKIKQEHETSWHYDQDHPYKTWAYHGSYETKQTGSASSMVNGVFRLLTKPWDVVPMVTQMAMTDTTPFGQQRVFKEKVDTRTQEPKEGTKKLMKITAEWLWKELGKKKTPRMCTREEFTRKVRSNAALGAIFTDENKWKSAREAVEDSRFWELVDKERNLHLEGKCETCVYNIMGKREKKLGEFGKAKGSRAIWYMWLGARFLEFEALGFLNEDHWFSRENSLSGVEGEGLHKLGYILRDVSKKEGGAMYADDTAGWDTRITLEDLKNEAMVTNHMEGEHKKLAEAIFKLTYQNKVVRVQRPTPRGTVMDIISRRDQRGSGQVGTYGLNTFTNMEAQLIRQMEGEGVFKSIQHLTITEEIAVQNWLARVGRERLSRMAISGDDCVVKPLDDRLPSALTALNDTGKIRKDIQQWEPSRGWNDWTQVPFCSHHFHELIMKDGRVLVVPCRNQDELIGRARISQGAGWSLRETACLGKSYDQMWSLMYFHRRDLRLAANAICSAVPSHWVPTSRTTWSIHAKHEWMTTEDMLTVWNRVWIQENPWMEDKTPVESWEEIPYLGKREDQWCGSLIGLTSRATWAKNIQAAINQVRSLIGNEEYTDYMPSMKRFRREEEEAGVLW
In a further experiment the target is Large T antigen (Simian virus 40, UniProt P03070). Type of experiment: functional, Betapolyomavirus macacae.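 Note: Confirmatory-stage PubChem screen for compounds that inhibit SV40 T antigen.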
Sequence of Large T antigen (P03070 whole entry): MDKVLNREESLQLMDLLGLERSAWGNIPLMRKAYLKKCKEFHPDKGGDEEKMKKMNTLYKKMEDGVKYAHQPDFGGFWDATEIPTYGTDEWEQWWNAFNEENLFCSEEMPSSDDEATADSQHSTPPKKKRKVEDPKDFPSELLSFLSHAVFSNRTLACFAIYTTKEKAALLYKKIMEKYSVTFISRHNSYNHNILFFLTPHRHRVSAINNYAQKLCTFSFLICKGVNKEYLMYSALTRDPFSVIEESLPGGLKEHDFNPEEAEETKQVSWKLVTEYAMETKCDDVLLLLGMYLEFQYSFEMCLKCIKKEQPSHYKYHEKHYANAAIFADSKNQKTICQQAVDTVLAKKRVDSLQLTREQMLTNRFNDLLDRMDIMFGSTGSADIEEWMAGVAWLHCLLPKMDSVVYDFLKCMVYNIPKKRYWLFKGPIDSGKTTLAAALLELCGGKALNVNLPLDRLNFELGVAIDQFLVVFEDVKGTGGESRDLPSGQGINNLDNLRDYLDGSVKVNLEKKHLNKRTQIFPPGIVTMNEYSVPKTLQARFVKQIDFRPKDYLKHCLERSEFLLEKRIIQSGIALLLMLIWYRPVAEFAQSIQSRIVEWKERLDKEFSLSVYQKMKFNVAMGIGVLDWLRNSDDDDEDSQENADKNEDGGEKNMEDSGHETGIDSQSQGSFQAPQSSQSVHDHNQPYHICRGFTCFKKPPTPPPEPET
A further experiment deals with T5, Protein RecA (Mycobacterium tuberculosis, UniProt P9WHJ3).
T5 sequence (P9WHJ3 whole entry): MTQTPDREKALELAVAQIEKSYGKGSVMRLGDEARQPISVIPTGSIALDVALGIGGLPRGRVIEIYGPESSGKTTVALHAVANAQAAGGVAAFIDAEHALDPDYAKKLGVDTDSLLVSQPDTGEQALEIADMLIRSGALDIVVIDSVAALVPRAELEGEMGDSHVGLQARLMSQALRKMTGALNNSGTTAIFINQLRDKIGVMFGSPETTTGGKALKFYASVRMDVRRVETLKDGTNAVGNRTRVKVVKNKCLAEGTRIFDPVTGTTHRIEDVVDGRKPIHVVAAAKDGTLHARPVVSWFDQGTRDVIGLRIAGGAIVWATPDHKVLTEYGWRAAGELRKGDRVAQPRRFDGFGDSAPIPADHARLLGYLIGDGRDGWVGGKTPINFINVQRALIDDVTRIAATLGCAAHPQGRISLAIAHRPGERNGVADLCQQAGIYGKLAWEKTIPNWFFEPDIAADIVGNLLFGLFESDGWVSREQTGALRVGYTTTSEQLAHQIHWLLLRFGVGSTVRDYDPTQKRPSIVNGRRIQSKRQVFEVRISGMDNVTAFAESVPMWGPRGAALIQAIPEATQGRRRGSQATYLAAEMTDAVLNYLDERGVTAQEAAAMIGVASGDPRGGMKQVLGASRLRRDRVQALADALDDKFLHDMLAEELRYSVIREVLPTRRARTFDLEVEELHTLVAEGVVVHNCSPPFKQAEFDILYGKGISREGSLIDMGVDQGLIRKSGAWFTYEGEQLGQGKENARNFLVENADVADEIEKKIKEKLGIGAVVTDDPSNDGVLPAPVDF
Description: Fluorescence Cell-Free Homogeneous Dose Retest to Identify Inhibitors of RecA-Intein Splicing Activity. [Related pubchem assays (depositor defined):AID2097, AID2223, AID489010, AID492950]. It is filed as functional.

Experiment [8] has as its target T6, Replicative DNA helicase DnaB (Mycobacterium tuberculosis, UniProt P9WMR3).
T6 sequence (P9WMR3 whole entry): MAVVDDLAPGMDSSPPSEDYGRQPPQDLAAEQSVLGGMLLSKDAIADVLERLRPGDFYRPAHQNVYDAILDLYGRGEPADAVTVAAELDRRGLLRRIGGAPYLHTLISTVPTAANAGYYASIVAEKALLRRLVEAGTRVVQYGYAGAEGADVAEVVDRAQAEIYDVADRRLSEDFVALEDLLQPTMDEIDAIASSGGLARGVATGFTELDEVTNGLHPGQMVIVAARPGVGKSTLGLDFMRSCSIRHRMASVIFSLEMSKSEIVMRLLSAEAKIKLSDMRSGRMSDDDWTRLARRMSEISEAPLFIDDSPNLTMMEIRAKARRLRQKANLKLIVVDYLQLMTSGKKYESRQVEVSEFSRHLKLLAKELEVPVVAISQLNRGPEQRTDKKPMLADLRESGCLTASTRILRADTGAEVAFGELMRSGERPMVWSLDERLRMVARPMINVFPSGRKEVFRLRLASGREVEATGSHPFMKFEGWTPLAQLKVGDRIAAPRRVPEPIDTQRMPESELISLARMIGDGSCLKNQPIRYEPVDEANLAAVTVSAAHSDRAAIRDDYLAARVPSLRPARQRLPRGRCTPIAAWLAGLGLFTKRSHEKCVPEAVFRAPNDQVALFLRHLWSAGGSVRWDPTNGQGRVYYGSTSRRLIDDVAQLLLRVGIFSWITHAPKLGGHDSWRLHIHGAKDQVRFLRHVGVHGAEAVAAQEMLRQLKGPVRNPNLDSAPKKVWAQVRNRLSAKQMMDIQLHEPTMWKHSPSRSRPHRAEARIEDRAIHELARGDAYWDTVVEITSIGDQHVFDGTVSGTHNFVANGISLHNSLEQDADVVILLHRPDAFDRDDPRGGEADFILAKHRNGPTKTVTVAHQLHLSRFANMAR
Briefly: DnaB intein splicing inhibitors, dose response, biochemical, cell-free fluorescence (AID 449749). Type of experiment: functional.

The target in another experiment is Nonstructural protein 1 (Influenza A virus, UniProt Q194T2). Type of experiment: functional, Influenza A virus (A/California/07/2009(H1N1)).
Sequence of Nonstructural protein 1 (Q194T2 whole entry): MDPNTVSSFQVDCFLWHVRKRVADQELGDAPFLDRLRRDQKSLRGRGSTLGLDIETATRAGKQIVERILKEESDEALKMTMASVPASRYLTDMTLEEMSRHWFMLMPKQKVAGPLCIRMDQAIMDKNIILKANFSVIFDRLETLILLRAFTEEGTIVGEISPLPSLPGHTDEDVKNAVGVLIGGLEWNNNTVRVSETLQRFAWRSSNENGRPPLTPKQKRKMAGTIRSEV

For 21 compounds, EC50, IC50 and AC50 results are on record in ChEMBL document CHEMBL1201862, “PubChem BioAssay data set” (2004).

Molecules are shown by their SMILES. The source made the active and inactive calls. Where only a bound is given, the exact number is not on record here.

Usually EC50 stands for the concentration that produces a half-maximal response. As to `CCOC(=O)c1sc2c(c1C)c(=O)n(Cc1ccccc1)c(=O)n2CCN(C)C`, the results for the EC50 (in experiment [1]; in the experiment “cells”; in experiment [2]) were > 60 µM (not active), 0.062 µM (active) and < 0.1 µM (active), respectively.

A word on the IC50: it is the concentration needed to halve the response being measured. For `Cc1cc(O)nc(SCC(=O)C23CC4CC(CC(C4)C2)C3)c1C#N`, the IC50 in experiment [3] was > 100 µM (active).

Take `Cc1c(Cl)cnc(NC(=O)COC(=O)CCC(=O)c2cccs2)c1Cl`: the half-inhibitory concentration (IC50) on Prothrombin was 2.77 µM (active).

Regarding `COC(=O)Nc1ccc(S(=O)(=O)NNC(=O)c2c(O)c3ccccc3n(C)c2=O)cc1`, the concentration for half-maximal inhibition (IC50) in experiment [4] was 13.2 µM (active); on Albumin it was > 94.1 µM (inactive).

`N#Cc1ccc(Sc2nc3ccccc3[nH]2)cc1C#N`: the results for the IC50 at Fatty acid synthase [5] and at Fatty acid synthase [6] were 2.7 µM (active) and 2.3 µM (active), respectively.

Consider `O=C(CN1C(=O)C2C3CCC(C3)C2C1=O)Oc1ccc2ccccc2c1` (stereo not given), for which, in [3], the IC50 is > 100 µM (active).

Consider `Cc1nc(-c2cnn(-c3ccccc3)c2)c2cc(C)oc2n1`, for which the IC50 against Prothrombin was > 50 µM (not active).

With `CCOc1ccc(NC2C=CS(=O)(=O)C2)cc1` (stereo not given), the IC50 in experiment [3] is > 100 µM (active).

Usually AC50 stands for the midpoint of the concentration-response curve, whichever way the signal moves. Take `O=C(O)c1ccc(Cl)c(S(=O)(=O)Nc2ccc3c[nH]nc3c2)c1`: on Caspase-6, the AC50 is 11.1 µM (active).

With `C=C(C)COc1ccc(-c2n[nH]cc2Oc2ccccc2OCC)c(O)c1`, the IC50 in experiment [7] is reported as 11.7 µM (not active).

For `COc1ccc2sc(N(CCCN(C)C)C(=O)c3ccc(S(=O)(=O)N(C)C4CCCCC4)cc3)nc2c1`, the EC50 was > 60 µM (not active) in experiment [1], 0.393 µM (active) in the experiment “cells” and < 0.1 µM (active) in [2].

For `COC(=O)Cc1ccc(NC(=O)c2ccc(Br)o2)cc1`, the IC50 in experiment [3] was > 100 µM (active).

For the compound `CCc1ccc(S(=O)(=O)NCc2cn3c(C)csc3n2)s1`, in experiment [7], the IC50 was 6.07 µM (not active).

For the compound `Cc1ccnc(NC(=O)c2ccc([N+](=O)[O-])o2)c1`, the IC50 against Prothrombin was > 50 µM (not active).

Turning to `O=C(O)c1cc(Nc2cc(Cl)c3nonc3c2[N+](=O)[O-])ccc1O`, the IC50 is 8.55 µM (active) at Genome polyprotein and 40.4 µM (active) on Large T antigen. Moreover, the AC50 at Caspase-6 was 14.6 µM (active); in experiment [8], 1.17 µM (active). In addition, the EC50 at Protein RecA was 1.33 µM (active).

For the compound `CCN(CC)c1ccc(CN(C)CCc2ccc(OC)c(OC)c2)cc1`, the EC50 in experiment [1] is > 60 µM (not active); in “cells”, < 0.004 µM (active); in experiment [2], < 0.1 µM (active).

On to `CC(C)(C)C1CCc2c(sc(NC(=O)CSc3nnc(-c4ccccc4)o3)c2C#N)C1` (stereo not given), for which, in experiment [3], the IC50 was > 100 µM (active).

Turning to `COc1ccc(Cl)cc1N(CC(=O)N/N=C/c1ccc(OCC(N)=O)cc1)S(C)(=O)=O`, the AC50 on Caspase-6 is 9 µM (active).

For `CC(C)(C)c1csc(N/N=C/c2cccnc2)n1`, the IC50 in [7] is 18.6 µM (not active).

On to `COc1cc(O)c(/C=N/NC(=O)c2ccncc2)c(OC)c1[N+](=O)[O-]`, for which the IC50 at Nonstructural protein 1 is 8.82 µM (active); on Albumin, > 94.1 µM (inactive).

In the case of `COc1ccc([N+](=O)[O-])cc1NC(=O)Nc1ccccc1`, the IC50 at Fatty acid synthase [5] was 19.9 µM (active); at Fatty acid synthase [6], 15.5 µM (active).
